Experimental data: patent US20230407243A1, “GENETIC PLATFORM TO INVESTIGATE THE FUNCTIONS OF BACTERIAL DRUG EFFLUX PUMPS” (priority 2022, published 2023)

What was measured:
Format in all cases: cell-based, Escherichia coli
[1] = system: EKO-35 strains with integrated RND tripartite efflux pumps (AcrB, AcrEF, AcrD, and MdtEF) with pGDP2:emrE or empty pGDP-2; test: Efflux pump interplay MIC profiling (pGDP2:emrE); conditions: for Interplay effect / MIC / Fold Change from EKO-35: Pore −
[2] = system: EKO-35-Pore strains with integrated AcrB, AcrEF, AcrD, MdtEF with pGDP2:emrE or empty pGDP-2; test: Efflux pump interplay MIC profiling (pGDP2:emrE), porinated; conditions: for Interplay effect / MIC / Fold Change from EKO-35: Pore +
Excerpt: This plasmid enables single-copy genomic integration of a selected gene through integration into the nonessential araC gene within the arabinose operon (Cox, G. et al., 2022). All E. coli genes were amplified from E. coli BW25113 genomic DNA, and mexCD was amplified from P. aeruginosa PAO1, using a high-fidelity polymerase, followed by ligation into pINT2. Successful clones were verified using PCR (Primers: pLac-Fwd/pINT-Rev, Table 4) and confirmed via Sanger sequencing at The Centre for Applied Genomics (TCAG) (The Hospital for Sick Children) and the AAC (University of Guelph). For the interplay studies, this process was repeated using the pGDP2 plasmid (Cox, G. et al., 2022).
To enable comparison between efflux production in different genetic backgrounds, each efflux pump-encoding gene was also integrated into the genome of the wild-type BW25113 strain, the single gene deletion mutant from the Keio Collection, and EKO-35. Strains of interest were propagated on LB agar at 37° C. Cell inoculum was prepared using the colony resuspension method and applied to a 96-well well plate (VWR) in technical duplicate, and the minimum inhibitory concentrations were determined according to Clinical & Laboratory Standards Institute (CLSI) protocols in MHB II (Patel J. B. et al, 2015). The plates were incubated for 18 h (Multitron Shaker, Infors HT) at 37° C. with aeration at 900 rpm. The plates were equilibrated to room temperature before the OD600 nm was measured using a BioTek Synergy H1 microplate reader. For interplay profiling, blank subtracted OD600 nm values >0.1 were considered to represent growth.
To investigate, the EKO-35-Pore strains were profiled using the same approach.

[3] = system: EKO-35 porinated strain expressing acrF (AcrEF); test: Checkerboard synergy (FICI), porinated strain
Summary of the method: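 Interaction of PAβN or NMP with antibiotics is scored as FICI = CA/MICA + CB/MICB, from MICs (no growth, OD600) in MHB II checkerboard microdilution following CLSI. Solvent controls accompany every plate.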

[4] = strain EKO-35 acrEF Pore, NMP + antibiotic

C[n+]1c2cc(N)ccc2cc2ccc(N)cc21.[Cl-] [acriflavine]
interplay of EmrE with tripartite efflux pumps on resistance ([1]; EKO-35, AcrB, AcrEF, AcrD, MdtEF combined with pEmrE): multiplicative effects
Interplay effect ([1]; acrB with pEmrE): Multiplicative
Interplay effect ([1]; acrD with pEmrE): Multiplicative
Interplay effect ([1]; acrEF with pEmrE): Multiplicative
Interplay effect ([1]; mdtEF with pEmrE): Multiplicative
MIC ([1]; strain EKO-35): 0.098 µg/mL
Fold Change from EKO-35 ([1]; strain EKO-35 pEmrE): 8
MIC ([1]; strain EKO-35 pEmrE): 0.781 µg/mL
Fold Change from EKO-35 ([1]; strain acrB pEmrE): 256
MIC ([1]; strain acrB pEmrE): 25 µg/mL
Fold Change from EKO-35 ([1]; strain acrB): 16
MIC ([1]; strain acrB): 1.56 µg/mL
Fold Change from EKO-35 ([1]; strain acrD pEmrE): 16
MIC ([1]; strain acrD pEmrE): 1.56 µg/mL
Fold Change from EKO-35 ([1]; strain acrD): 1
MIC ([1]; strain acrD): 0.098 µg/mL
Fold Change from EKO-35 ([1]; strain acrEF pEmrE): 128
MIC ([1]; strain acrEF pEmrE): 12.5 µg/mL
Fold Change from EKO-35 ([1]; strain acrEF): 8
MIC ([1]; strain acrEF): 0.781 µg/mL
Fold Change from EKO-35 ([1]; strain mdtEF pEmrE): 16
MIC ([1]; strain mdtEF pEmrE): 1.56 µg/mL
Fold Change from EKO-35 ([1]; strain mdtEF): 1
MIC ([1]; strain mdtEF): 0.098 µg/mL
resistance conferred by AcrD alone or in combination with EmrE ([2]; EKO-35-Pore): did not increase resistance
interplay of EmrE with tripartite efflux pumps on resistance ([2]; EKO-35-Pore, AcrB, AcrEF, AcrD, MdtEF combined with pEmrE): Interplay was maintained
interplay of EmrE with AcrD on resistance ([2]; EKO-35-Pore, AcrD with EmrE): multiplicative effect was lost
Interplay effect ([2]; acrB with pEmrE): Multiplicative
Interplay effect ([2]; acrEF with pEmrE): Multiplicative
Interplay effect ([2]; mdtEF with pEmrE): Multiplicative
MIC ([2]; strain EKO-35): 0.049 µg/mL
Fold Change from EKO-35 ([2]; strain EKO-35 pEmrE): 16
MIC ([2]; strain EKO-35 pEmrE): 0.781 µg/mL
Fold Change from EKO-35 ([2]; strain acrB pEmrE): 256
MIC ([2]; strain acrB pEmrE): 12.5 µg/mL
Fold Change from EKO-35 ([2]; strain acrB): 16
MIC ([2]; strain acrB): 0.781 µg/mL
Fold Change from EKO-35 ([2]; strain acrD pEmrE): 16
MIC ([2]; strain acrD pEmrE): 0.781 µg/mL
Fold Change from EKO-35 ([2]; strain acrD): 2
MIC ([2]; strain acrD): 0.098 µg/mL
Fold Change from EKO-35 ([2]; strain acrEF pEmrE): 128
MIC ([2]; strain acrEF pEmrE): 6.25 µg/mL
Fold Change from EKO-35 ([2]; strain acrEF): 16
MIC ([2]; strain acrEF): 0.781 µg/mL
Fold Change from EKO-35 ([2]; strain mdtEF pEmrE): 32
MIC ([2]; strain mdtEF pEmrE): 1.56 µg/mL
Fold Change from EKO-35 ([2]; strain mdtEF): 4
MIC ([2]; strain mdtEF): 0.195 µg/mL

CC[n+]1c(-c2ccccc2)c2cc(N)ccc2c2ccc(N)cc21 [ethidium bromide]
FICI ([3]; EKO-35 acrEF Pore, NMP + antibiotic): 0.500
Effect [3, 4]: Synergistic (Synergy (FICI ≤0.5))
FICI [3, 4]: 0.500
MICb Alone ([3]; strain EKO-35 acrEF Pore, antibiotic alone): 2 µg/mL
MICb Combined ([3]; strain EKO-35 acrEF Pore, antibiotic in combination with NMP): 0.5 µg/mL
MIC ([1]; strain EKO-35): 0.122 µg/mL
Fold Change from EKO-35 ([1]; strain EKO-35 pEmrE): 4
MIC ([1]; strain EKO-35 pEmrE): 0.488 µg/mL
Fold Change from EKO-35 ([1]; strain acrB pEmrE): 256
MIC ([1]; strain acrB pEmrE): 31.2 µg/mL
Fold Change from EKO-35 ([1]; strain acrB): 64
MIC ([1]; strain acrB): 7.81 µg/mL
Fold Change from EKO-35 ([1]; strain acrD pEmrE): 16
MIC ([1]; strain acrD pEmrE): 1.95 µg/mL
Fold Change from EKO-35 ([1]; strain acrD): 2
MIC ([1]; strain acrD): 0.244 µg/mL
Fold Change from EKO-35 ([1]; strain acrEF pEmrE): 64
MIC ([1]; strain acrEF pEmrE): 7.81 µg/mL
Fold Change from EKO-35 ([1]; strain acrEF): 16
MIC ([1]; strain acrEF): 1.95 µg/mL
Fold Change from EKO-35 ([1]; strain mdtEF pEmrE): 32
MIC ([1]; strain mdtEF pEmrE): 3.91 µg/mL
Fold Change from EKO-35 ([1]; strain mdtEF): 8
MIC ([1]; strain mdtEF): 0.977 µg/mL
MIC ([2]; strain EKO-35): 0.061 µg/mL
Fold Change from EKO-35 ([2]; strain EKO-35 pEmrE): 4
Fold Change from EKO-35 ([2]; strain acrB pEmrE): 256
MIC ([2]; strain acrB pEmrE): 15.6 µg/mL
Fold Change from EKO-35 ([2]; strain acrB): 64
MIC ([2]; strain acrB): 3.91 µg/mL
Fold Change from EKO-35 ([2]; strain acrD pEmrE): 8
Fold Change from EKO-35 ([2]; strain acrD): 1
MIC ([2]; strain acrD): 0.061 µg/mL
Fold Change from EKO-35 ([2]; strain acrEF pEmrE): 64
MIC ([2]; strain acrEF pEmrE): 3.91 µg/mL
Fold Change from EKO-35 ([2]; strain acrEF): 16
Fold Change from EKO-35 ([2]; strain mdtEF pEmrE): 32
MIC ([2]; strain mdtEF pEmrE): 1.95 µg/mL
Fold Change from EKO-35 ([2]; strain mdtEF): 8
